Assay results reported in US5298621A, “Oligopeptide derivatives of ipoxantine endowed with immunomodulating activity and pharmaceutical compositions containing same” (Sigma-Tau Industrie Farmaceutiche Riunite S.p.A., priority 1990, dated 1994).

What was measured:
splenocytes = test: "In vitro-ex vivo" mytogen (PHA)-induced splenocyte proliferation in mice
Method: Test 5 Assessment of the "in vitro-ex vivo" effect of ST 733 and ST 789 on the mytogen (PHA)-induced splenocyte proliferation in mice.
Male B6 D2 F1 mice (Charles River, Italy) aged 7-8 weeks (4 animals per group) were used.
PHA (phytohemagglutinine) active on T lymphocytes was used as mytogen. The mytogen was tested at three different concentrations (suboptimal, optimal, superoptimal): 0.5, 2 and 4 mcg/mL/well.
The compounds were administered i.p. 25 mg/kg/day from day -5 to day -1 (spleen excision at day 0).
The experimental procedure was conducted substantially as described by Kirchner et al, "Splenic suppressor macrophages induced in mice by injection of C. parvum", J. Immunol., 1975, 115:1212.
In particular, the cell suspensions obtained from the spleens of the animals of the same group were pooled and the cell concentration was adjusted to 5×10^6 cell/mL.
To volumes of 0.1 mL of each sample, equal volumes of the mytogen preparation were added so as to obtain the previously indicated final concentrations.
Each sample was prepared in triplicate in U-bottom microtiters. A control, to which 0.1 mL of medium was added instead of the mytogen, was also prepared. The control permits the extent of spontaneous proliferation in the absence of stimulation to be assessed.
The samples were incubated at 37° C. for 48 hours and then they were pulsed with 20 μL ^3 H-TdR (25 μCi/mL).
After 18 hours of further incubation, the cells were collected on filters and counted in a beta-counter to evaluate the incorporated radioactivity (in cpm).
The results for each sample are expressed by calculating the value of the area under the curve (AUC) obtained by plotting the values of the incorporated radioactivity (in cpm) versus the three concentrations of mytogen.
In addition to AUC, also the stimulation index (SI) is considered, that is defined as follows: [formula]

[1] = system: responders (thymus of C57B1/6) induced by stimulators (spleen of DBA/2); test: "In vitro-ex vivo" mixed lymphocyte reaction (MLR); design: species or system mice; details: 25 mg/kg/day i.p. from day -5 to day -1
Method: Test 8 Assessment of the "in vitro-ex vivo" effect of ST 733, ST 754 and ST 789 on the mixed lymphocyte reaction (MLR).
Male DBA/2 mice (Charles River, Italy) aged 8 weeks were used as "stimulators" (4 animals per group); male inbred C57 B1/6 mice (Charles River, Italy) were used as "responders" (4 animals per group).
The compounds were administered i.p. from day -5 to day -1 (thymus excision of "responders" at day 0) 25 mg/kg/day.
The experimental procedure that was used is described by Hudson, L. and Hay, F. C., Practical Immunology, Blackwell Scientific Publication 290 (1980).

thymocytes = test: "In vitro-ex vivo" mytogen (PHA, Con A)-induced murine thymocite proliferation; design: species or system mice; details: 25 mg/kg/day i.p. from day -4 to day -1
Method: Test 7 Assessment of the "in vitro-ex vivo" effect of ST 754, ST 785 and ST 789 on the mytogen (PHA, Con A)-induced murine thymocite proliferation.
The compounds were administered at the dose of 25 mg/kg/day from day -4 to day -1 (thymus excision at day 0). This test was conducted following the procedure described for test 5.
The Stimulation Index (S.I.) is as defined in test 5.

Salmonella typhimurium = test: Protective effect in immunodepressed mice experimentally infected with Salmonella typhimurium; format: in vivo; details: Salmonella typhimurium 1 × 10^3 cells
Source text: Test 2 Assessment of the protective effect induced by ST 657, ST 733, ST 754 and ST 789 on immunodepressed mice experimentally infected.
Male CD1 mice (Charles River, Italy) of different ages were used: mice aged 6 and 12 weeks infected with Klebsiella and mice aged 7 weeks infected with Salmonella (10 mice per group).
Systemic infection in mice was induced via i.p. inoculum of either a pathogenic strain of Klebsiella (K. pneumoniae) or a pathogenic strain of Salmonella (S. typhimurium), which were able to provoke death of the animals within 5 and 20 days, respectively, following the challenge.
Infective doses prepared from overnight broth cultures corresponding to 1.5×10^5 and 3.5×10^5 live cells of K. pneumoniae, and 1×10^3 live cells of S. typhimurium were suspended in 0.2 mL of 5% gastric mucine and then injected.
The immunosuppressor (cyclophosphamide) was administered i.p. in 0.2 mL of sterile saline, 100 mg/kg, 5 days before the infective challenge.
The compounds were administered i.p., 0.25 and 25 mg/kg/day, from day -5 to day -1 (challenge at day 0).
The results obtained are expressed as % mortality and statistically processed with the Fisher's exact test (Biostatistics in Pharmacology, vol. II, Pergamon Press).

Sarcoma S 180 cells = test: Protective effect in S 180 Sarcoma-bearing mice; format: in vivo; details: for Dead/total / MST (mean survival time calculated by the median and the first interquartile range): 0.25 mg/kg i.p. from day +1 to day +10; for Weight control (x ± S.E.): 0.25 mg/kg/day i.p. day +1 to +10, in g (unit assumed); for number of surviving animals at the indicated day / animals survived (footnote, end of observation): group of 9, 0.25 mg/kg/day; for animals survived (footnote, end of observation): after day +26
Method: Test 4 Assessement of the protective effect of ST 657 and ST 789 in tumor-bearing mice.
Male DBA/2 mice and male CD1 mice (Charles River), both aged 6 weeks, were used.
CD1 mice were inoculated i.p. with 1×10^3 Sarcoma S 180 cells (ATCC, loc. cit.) in 0.1 mL of Hank's medium.
The compounds were adminstered i.p. in sterile saline (0.25 mg/kg/day) from day +1 to day +10 (tumor transplantation at day 0).
Also the body weight of the animals was monitored, from day 0 to day +16 for the L 1210 leukemia-bearing mice, and from day 0 to day +21 for the S 180 sarcoma-bearing mice.
Monitoring of body weight was conducted in order to evaluate the evolution of the neoplastic process. Compounds activity was assessed as Mean Survival Time (MST).

[2] = 25 mg/kg/day i.p. from day -5 to day -1
[3] = 0.25 mg/kg/day i.p. day -5 to -1

Row | Compound | % Mortality (Salmonella typhimurium; [3]) | % Mortality (Salmonella typhimurium; 25 mg/kg/day i.p. day -5 to -1) | Dead/total (Sarcoma S 180 cells) | MST (mean survival time calculated by the median and the first interquartile range) (Sarcoma S 180 cells) | Weight control (x ± S.E.) (Sarcoma S 180 cells; Day 0) | Weight control (x ± S.E.) (Sarcoma S 180 cells; Day 2) | Weight control (x ± S.E.) (Sarcoma S 180 cells; Day 4) | Weight control (x ± S.E.) (Sarcoma S 180 cells; Day 7) | Weight control (x ± S.E.) (Sarcoma S 180 cells; Day 9) | Weight control (x ± S.E.) (Sarcoma S 180 cells; Day 11) | Weight control (x ± S.E.) (Sarcoma S 180 cells; Day 14) | Weight control (x ± S.E.) (Sarcoma S 180 cells; Day 16) | Weight control (x ± S.E.) (Sarcoma S 180 cells; Day 21) | number of surviving animals at the indicated day (Sarcoma S 180 cells; Day 21) | animals survived (footnote, end of observation) (Sarcoma S 180 cells) | also measured
1 | N=C(N)NCCC[C@H](NC(=O)OCCCCCn1cnc2c(=O)[nH]cnc21)C(=O)O [ST 789, N-5-(ipoxantin-9-yl) pentyloxycarbonylarginine, reference compound] | 10% | 20% | 8/9 | 22.0 (20.5-≥25.5) | 21.8 ± 0.5 | 22.4 ± 0.5 | 24.3 ± 0.6 | 25.8 ± 0.7 | 26.9 ± 0.8 | 29.2 ± 1.2 | 33.1 ± 2.0 | 34.0 ± 2.0 | 32.8 ± 2.2 | 5 | One | Body weight (splenocytes; [2]): 23.9 ± 0.1 g; Spleen weight (splenocytes; [2]): 87.0 ± 4.5 mg; Thymus weight (splenocytes; [2]): 64.5 ± 4.6 mg; PHA AUC (area under curve, cpm versus three mytogen concentrations) (splenocytes; PHA 0.5, 2 and 4 mcg/mL/well, 25 mg/kg/day i.p. from day -5 to day -1): 114 × 10^-3; PHA I.S. (stimulation index) (splenocytes; PHA-induced proliferation, 25 mg/kg/day i.p. from day -5 to day -1): 1.30; mytogen-induced proliferation versus the controls (in words) (splenocytes; PHA, 25 mg/kg/day i.p.): slight increase; Splenocytes No. (× 10^7) (splenocytes; pooled samples, 25 mg/kg/day i.p. from day -5 to day -1): 10.0 × 10^7; Body weight [1]: 22.1 ± 0.5 g; Spleen weight [1]: 82.7 ± 3.2 mg; Thymus weight [1]: 63.0 ± 7.9 mg; ^3 H-TdR Incorporation (cpm ± S.E.) Non stimulated responders [1]: 132.0 cpm; ^3 H-TdR Incorporation (cpm ± S.E.) Stimulated responders [1]: 9256 cpm; Thymocytes No. (× 10^7) ([1]; pooled samples): 14.7 × 10^7; Body weight (thymocytes): 22.8 ± 0.5 g; Thymus weight (thymocytes): 74.2 ± 4.4 mg; Con A AUC (× 10^-3) (thymocytes; Con A-induced proliferation): 68 × 10^-3; Con A I.S. (stimulation index) (thymocytes; Con A-induced proliferation): 1.10; PHA AUC (area under curve) (thymocytes; PHA-induced proliferation): 3924; PHA I.S. (stimulation index) (thymocytes; PHA-induced proliferation): 1.40; Thymocytes No. (× 10^7) (thymocytes; pooled samples): 12.1 × 10^7
2 | N-5-(ipoxantin-9-yl) pentyloxycarbonyl glycyl L-aspartate disodium salt [ST 657] | 0% | 0% | 5/9 | 26.0 (20.5-≥47.0) | 22.2 ± 0.3 | 22.0 ± 0.6 | 23.9 ± 0.4 | 26.1 ± 0.4 | 27.3 ± 0.5 | 28.6 ± 0.6 | 31.2 ± 1.0 | 31.4 ± 1.1 | 32.9 ± 1.0 | 6 | 4 | MST / protection in tumor-bearing mice (in words) (Sarcoma S 180 cells; comparison with ST 789, S 180 and L 1210 tables): higher MST and/or a better protection than ST 789
